Series [1] is classed as physicochemical. Conditions: ternary solubilizing composition of Tecovirimat, cyclodextrin and Meglumine. As for the experimental part:
An excessive amount of Tecovirimat was added to an aqueous solution comprising meglumine and cyclodextrin at a different ratio to form a suspension. The suspension was placed in a constant-temperature incubation shaker, and was shaken at a temperature of 25±1° C., 37±1° C. and 60±1° C. for 72 h, respectively. After reaching equilibrium, the suspension was filtered through a 0.45 μm hydrophilic filter membrane to obtain a filtrate. After the filtrate was properly diluted with an acetonitrile-water (50:50, v/v) solution, the absorbance was measured at 224 nm, and the solubility of Tecovirimat was calculated. The corresponding solubility curve was plotted by using the solubility of the drug as the ordinate, and using the concentration of cyclodextrin and/or meglumine as the abscissa.

For series [2] the following is noted: 20%-40% (w/v) hydroxypropyl-cyclodextrin (HP-3-CD) at 37° C.; cited from earlier work.

Each structure is given as a SMILES string.

On to `O=C(NN1C(=O)[C@@H]2[C@@H]3C=C[C@@H]([C@H]4C[C@@H]34)[C@@H]2C1=O)c1ccc(C(F)(F)F)cc1` [Tecovirimat, 4-trifluoromethyl-N-(3,3a,4,4a,5,5a,6,6a-octahydro-1,3-dioxo-4,6-ethenocycloprop[f]isoindol-2(1H)-yl)-benzamide], for which, in series [1], the maximal solubility entry was “up to 152 mg/ml”. Also, in series [2], the solubility is 1500 to 11000 µg/mL.

In general, solubility refers to how much of the substance goes into solution per volume.

The values above are taken from patent US11369587B2, “Injectable pharmaceutical composition of tecovirimat and preparation method thereof” (priority 2016, dated 2022).
